# In US12569507B2, “CAR T-cells for the treatment of bone metastatic cancer” (H. Lee Moffitt Cancer Center and Research Institute, Inc., priority 2018, dated 2026):
# How the values were obtained:
# C4-2B-PSCA cells [1] = test: RTCA cytotoxicity with or without zoledronate; format: cell-based, human; details: γδ T-cells in combination with zoledronate
# Protocol: (§1) Summary of RTCA analysis of C4-2B-PSCA, or control PSCA null C4-2B, cells co-cultured with γδ CAR-T cells, or untransduced controls (UT). FIGS. […] show tumor cells without ZOL pretreatment. FIGS. 6C and 6D show tumor cells with 2 h ZOL pretreatment. FIGS. 6A and 6C show tumor cell viability 2 h post co-culture. FIGS. 6B and 6D show 30 h post co-culture.
# (§2) The CAR- and TCR-mediated mechanism of tumor cell recognition were tested using the CRPC C4-2B cell line.
# [2] = test system: Parental C4-2B cells (PSCA null); test: RTCA cytotoxicity with or without zoledronate; format: cell-based, human; details: γδ T-cells in combination with zoledronate
# Protocol: as §1, §2
# C4-2B-PSCA cells [3] = test: IFNγ ELISA of co-culture supernatants with increasing Zol; format: cell-based
# Protocol: IFNγ ELISA of co-culture supernatants of C4-2B-PSCA cells exposed to media (negative control) or the indicated T cells, in presence of increasing concentrations of Zol (0, 0.4 and 0.8 μM).
# (§3) γδ CAR-T cells recognize tumor cells via CAR and via TCR. The CAR- and TCR-mediated mechanisms of tumor cell recognition were tested using the CRPC C4-2BPSCA cell line. Cancer cells were treated with either untransduced (UT) control or CAR-expressing γδ T-cells, in the presence or absence of ZOL (0.4 μM). In presence of ZOL, control γδ T cells induced a cytotoxic effect at approx. 18 h, reflecting recognition of C4-2B-PSCA cells via TCR. […] The ability to induce a potent cytolytic effect with lesser cytokine production that can be modulated by ZOL is important since it may allow γδ (CAR-)T-cells to mediate more precise tumor killing, reducing the risk for complications related to massive cytokine release.
# T47D breast cancer cells = test: IPP production in response to zoledronate, LC-MS/MS of cell extracts; format: cell-based; details: 1 h, high-dose zoledronate
# Protocol: (§4) Following treatment of tumor cells with ZOL, IPP was measured in cell extracts by tandem LC-MS/MS, using AppCp as an internal standard. […] ZOL treatment was administered for 1 h or 18 h, at 2 different doses: 10 μM or 25 μM.
# (§5) In order to verify that zoledronate effectively induces IPP accumulation in a model system, C4-2B-PSCA-Luc human CRPC prostate cancer cells were treated with 10 μM or 25 μM of zoledronate, for 1 h or 18 h. Intracellular IPP levels were measured using a semi-quantitative mass spectrometry assay. T47D breast cancer cells were used as positive control, and Panc02.03 pancreatic cancer cells were used as negative controls.
# [4] = test system: Panc02.03 pancreatic cancer cells; test: as above; format: cell-based; details: Panc02.03 cells, even after prolonged treatment with high doses
# Protocol: as §4, §5
# [5] = test system: C4-2B luciferase expressing cells; test: Intratibial C4-2B bone metastatic CRPC model, γδ T-cells with zoledronate or vehicle; format: in vivo, NSG mice
# From the text: FIGS. 7A to 7D show C4-2B cells inoculated into NSG mice and treated with either zoledronate (ZOL) or vehicle control. After establishment and randomization mice (n=15/group) were inoculated with 3.5×10^6 […]. Subsets of mice were removed from the study at 1, 3 and 5 days late. […] Number illustrate the percentage of γδ T-cells in the total marrow analysis over time. […] FIG. 7C is a graph showing RLUs quantitated over time and the growth rates calculated for each group. Asterisk indicates statistical significance. Mice at the final time point were assessed for γδ T-cell localization (CD3), apoptosis (cleaved caspase-3; CC3) and proliferation (phospho histone H3; pHH3). […] Arrows indicate positivity. DAPI was used as a nuclear counterstain.
# Next, the anti-tumor activity of γδ T-cells on established bone metastatic CRPC lesions in vivo was assessed. NSG (NOD.Cg-Prkdcscid112rgtm1Wjl/SzJ) immunocompromised mice were intratibially inoculated with C4-2B luciferase expressing cells (1×10^5) and once established were randomized in zoledronate (0.1 mg/Kg) or vehicle (saline) groups (n=25 per group) based on relative luminescence unit (RLU) measurement. One week later, mice received tail vein injections of human γδ T-cells (3.5×10^6/mouse).
# Groups of mice (n=5) were removed from the study 1, 3, 5 days subsequent to injection with tibias being flushed and assessed for human CD3 Vd2 content by flow cytometry. […] Bioluminescence was used as a correlate of tumor growth.
# CRPC C4-2BPSCA cell line = test: Cytotoxicity of γδ (CAR)-T cells with or without ZOL; format: cell-based; details: ZOL 0.4 μM added to γδ CAR-T
# Protocol: FIGS. 11A and 11B show zoledronate enhances γδ (CAR)-T cells cytotoxic effect.
# as §3
# [6] = test system: PSCA-expressing C42B prostate cancer cells; test: Interferon-γ ELISA of γδ CAR-T coculture supernatants; format: cell-based
# From the text: Four variants of the anti-PSCA CAR were generated containing either CD27 (CD27z), CD28 (CD28z), or 4-1BB (BBz) costimulation. The fourth variant contains a CD27 costimulatory domain where the TRAF-binding site has been replaced with an inert flexible linker (G4S). γδ CAR-T cells expressing either CAR variant (or GFP as controls) were generated, and cocultured with PSCA-expressing C42B prostate cancer cells, in presence or absence of zoledronate, at the indicated doses. The presence of interferon-γ in the supernatants (measured by ELISA) was used as a marker of T cell activation. CAR-expressing T cells (but not untransduced or GFP-transduced cells) reacted to target cells by producing interferon-γ (solid bars).
# γδ (CAR)-T cells = test: IL-2 secretion by γδ (CAR)-T cells; format: cell-based
# [7] = tibias at study endpoint, vs control
structure (smiles),measurement,setting,value
O=P(O)(O)C(O)(Cn1ccnc1)P(=O)(O)O [zoledronate],"viability of tumor cells, early time point",C4-2B-PSCA cells [1],less evident
same,"viability of tumor cells, early time point",[2],notable reduction in the viability
same,effect of ZOL on IFNγ secretion,C4-2B-PSCA cells [3]; coculture of γδ (CAR-)T-cells with C4-2BPSCA cells,enhanced IFNγ secretion
same,effect of ZOL on IFNγ secretion,C4-2B-PSCA cells [3]; αβ T cells used,not observed
same,Intracellular IPP levels,T47D breast cancer cells,detectable over background
same,Intracellular IPP levels,[4],did not produce IPP
same,apoptotic (cleaved caspase-3) cancer cells,[5]; [7],increased
same,proliferative (phospho-Histone H3) cancer cells,[5]; [7],decreased
same,C4-2B growth rate (bioluminescence),"[5]; zoledronate group vs controls, with γδ T-cells",significantly slower
same,effect of ZOL on cytolytic activity of γδ CAR-T,CRPC C4-2BPSCA cell line,greatly enhanced
same,time to complete elimination of tumor cells,CRPC C4-2BPSCA cell line,≤ 45 h
same,effect of zoledronate on target recognition by control γδ T cells,[6]; GFP-transduced and untransduced γδ T cells,induced target recognition by GFP-transduced and untransduced γδ T cells
same,effect of zoledronate on interferon production by CAR-T cells,"[6]; γδ CAR-T cells, coculture",enhanced interferon production by CAR-T cells
same,IL-2 secretion by γδ (CAR)-T cells,γδ (CAR)-T cells,increases IL-2 secretion
